Data on 4 compounds can be found in US20240343732A1, “COMPOUNDS FOR DEGRADATION OF CYCLIN-DEPENDENT KINASE 7(CDK7)” (QURIENT CO., LTD., priority 2021, published 2024).

Experiment [1] addresses T1, CDK1 (Homo sapiens, UniProt P06493).
T1 construct: His; purchased Invitrogen PR4768C
As to the kind of experiment: Binding assay (FRET, LanthaScreen Eu, Tracer236) for CDK1. As to conditions: for IC50: read-out: CDK1 IC50 (enzyme binding assay). (In TR-FRET formats the signal depends on donor and acceptor labels being close together.)

Experiment [2] addresses T2, CDK2 (Homo sapiens, UniProt P24941).
T2 construct: His; purchased Invitrogen PR4448B
As to the kind of experiment: Binding assay (FRET, LanthaScreen Eu, Tracer236) for CDK2. As to conditions: for IC50: read-out: CDK2 IC50 (enzyme binding assay).

Experiment [3] concerns the target T3, CDK5 (Homo sapiens, UniProt Q00535).
T3 construct: His; purchased Invitrogen PR8543B
Description: Binding assay (FRET, LanthaScreen Eu, Tracer236) for CDK5. As to conditions: for IC50: read-out: CDK5 IC50 (enzyme binding assay).

The target of experiment [4] is T4, CDK7/CycH/MNAT1 (Homo sapiens, UniProt P50613).
T4 construct: His; purchased Invitrogen PR6749B
As to the kind of experiment: Binding assay (FRET, LanthaScreen Eu, Tracer236) for CDK7. As to conditions: read-out: CDK7 IC50 (enzyme binding assay).

The target of experiment [5] is T5, CDK7 protein (Homo sapiens, UniProt P50613).
T5 construct: To verify endogenous CDK7 protein degradation; endogenous in cells; host or cells: A2780 (ECACC 93112519)
Description: Western blot assay for CDK7 protein degradation in A2780 cells.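 Also: A is DC50 up to 100 nM B is 100 to 1000 nM C is above 1000 nM.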 The experiment is classed as cell-based. As to conditions: 24 hours, read-out: Compound concentration that caused 50% CDK7 protein degradation in A2780 cells (DC50). As to the method: Human ovarian cancer cell line, A2780 (Cat #93112519) was obtained from ECACC. Cells were grown in RPMI-1640 media (Invitrogen, Cat #22400105) supplemented with 10% FBS (Hyclone, Cat #SH30084.03) and 1% penicillin/streptomycin (Hyclone, Cat #SV30010) and cultured at 37° C., 5% Co2 in a humidified chamber. All cell lines were routinely tested for mycoplasma.
To verify endogenous CDK7 protein degradation upon treatment of CDK7-specific degrader, the western blot assay was conducted a 24 hours' time period. 6×10^5 cells/well of A2780 cells were plated in 6-well plate. After 24 hours, the cells were treated with various concentrations of the compound corresponding range. DMSO solvent without compound served as a control and final DMSO concentration was not to exceed 0.1% of total volume. After 24 hours of incubation at 37° C., 5% Co2 incubator, cells were collected and lysed with 60 ul of lysis buffer. Collected lysates were incubated for 30 min on ice and collect supernatant through centrifugation at 12,000 rpm for 10 min at 4° C. The protein in lysates were quantified with BCA protein quantification kit (Pierce, Cat #23227) following manufacture's protocol. Cell lysates were diluted into 1 ug/ul of concentration with lysis buffer. 20 ug of protein was loaded to each well of 4˜12% Bis-Tris gel (Invitrogen, Cat #NP0336BOX) with MOPS running buffer (Invitrogen, Cat #NP0001). The proteins were transferred from gel to membrane and incubated with primary antibody as followed at 4° C. overnight; CDK7 (CST, Cat #2090S) and β-actin (Santa Cruz, Cat #sc-47778) 1:20,000. The signals were developed and acquired with ImageQuant™ LAS 4000.
(In general: In western blotting, separated proteins are transferred to a membrane and probed.)

T1 sequence (P06493 whole entry): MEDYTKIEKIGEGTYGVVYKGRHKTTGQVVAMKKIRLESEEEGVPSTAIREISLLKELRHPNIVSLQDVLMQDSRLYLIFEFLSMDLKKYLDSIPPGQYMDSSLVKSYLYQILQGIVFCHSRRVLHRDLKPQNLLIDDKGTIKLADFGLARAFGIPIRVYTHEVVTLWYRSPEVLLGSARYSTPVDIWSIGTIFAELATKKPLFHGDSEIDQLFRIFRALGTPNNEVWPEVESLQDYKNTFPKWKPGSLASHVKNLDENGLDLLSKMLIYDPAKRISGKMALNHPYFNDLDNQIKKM
T1 sequence (P14635 whole entry partner): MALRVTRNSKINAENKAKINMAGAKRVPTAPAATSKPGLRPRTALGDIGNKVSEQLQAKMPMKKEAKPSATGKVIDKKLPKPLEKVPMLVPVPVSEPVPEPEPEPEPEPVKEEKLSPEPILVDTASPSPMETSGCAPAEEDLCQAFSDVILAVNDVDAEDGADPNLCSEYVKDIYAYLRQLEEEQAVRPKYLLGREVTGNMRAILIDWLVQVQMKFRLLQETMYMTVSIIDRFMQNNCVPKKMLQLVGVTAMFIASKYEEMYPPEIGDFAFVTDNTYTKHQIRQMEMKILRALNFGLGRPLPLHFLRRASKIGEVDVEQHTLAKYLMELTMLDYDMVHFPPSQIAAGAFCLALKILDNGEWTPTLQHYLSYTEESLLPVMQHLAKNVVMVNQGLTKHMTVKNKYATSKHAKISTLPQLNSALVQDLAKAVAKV
T5 sequence (P50613 whole entry): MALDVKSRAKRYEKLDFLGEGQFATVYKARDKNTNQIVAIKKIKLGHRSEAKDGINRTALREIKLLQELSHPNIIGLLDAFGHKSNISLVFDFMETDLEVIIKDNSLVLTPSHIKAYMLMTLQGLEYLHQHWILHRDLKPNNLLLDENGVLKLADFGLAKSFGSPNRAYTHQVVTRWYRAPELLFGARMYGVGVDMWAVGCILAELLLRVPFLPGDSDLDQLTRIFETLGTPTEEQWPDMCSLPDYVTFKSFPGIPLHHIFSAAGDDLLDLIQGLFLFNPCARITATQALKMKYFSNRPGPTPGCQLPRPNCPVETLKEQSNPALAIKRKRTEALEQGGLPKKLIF
T4 sequence (P50613 whole entry): as above
T4 sequence (P51946 whole entry partner): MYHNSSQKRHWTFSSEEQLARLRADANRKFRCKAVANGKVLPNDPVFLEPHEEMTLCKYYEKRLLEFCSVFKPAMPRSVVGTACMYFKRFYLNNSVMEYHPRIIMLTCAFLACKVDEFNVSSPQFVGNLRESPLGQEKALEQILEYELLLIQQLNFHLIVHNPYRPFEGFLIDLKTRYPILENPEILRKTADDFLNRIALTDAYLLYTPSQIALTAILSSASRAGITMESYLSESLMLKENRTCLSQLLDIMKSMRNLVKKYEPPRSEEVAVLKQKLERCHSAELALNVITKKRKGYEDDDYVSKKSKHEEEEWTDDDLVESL
T4 sequence (P51948 whole entry partner): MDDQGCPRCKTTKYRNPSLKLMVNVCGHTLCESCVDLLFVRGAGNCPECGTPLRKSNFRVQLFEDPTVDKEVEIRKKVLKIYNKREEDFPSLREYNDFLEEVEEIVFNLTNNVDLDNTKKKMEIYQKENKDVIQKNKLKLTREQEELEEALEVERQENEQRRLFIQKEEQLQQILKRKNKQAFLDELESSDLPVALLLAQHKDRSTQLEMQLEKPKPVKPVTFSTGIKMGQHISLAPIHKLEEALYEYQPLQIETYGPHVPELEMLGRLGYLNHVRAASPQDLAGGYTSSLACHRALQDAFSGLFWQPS
T3 sequence (Q00535 whole entry): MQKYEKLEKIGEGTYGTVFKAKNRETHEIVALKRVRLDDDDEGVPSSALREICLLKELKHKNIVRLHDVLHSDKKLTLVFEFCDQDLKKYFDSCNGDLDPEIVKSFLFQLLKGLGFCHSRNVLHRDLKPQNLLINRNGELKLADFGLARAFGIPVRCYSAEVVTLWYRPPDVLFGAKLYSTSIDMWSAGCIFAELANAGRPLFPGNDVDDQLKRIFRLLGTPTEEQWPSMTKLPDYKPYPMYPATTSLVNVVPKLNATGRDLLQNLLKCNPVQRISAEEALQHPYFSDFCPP
T3 sequence (Q15078 99-307 partner limits assumed): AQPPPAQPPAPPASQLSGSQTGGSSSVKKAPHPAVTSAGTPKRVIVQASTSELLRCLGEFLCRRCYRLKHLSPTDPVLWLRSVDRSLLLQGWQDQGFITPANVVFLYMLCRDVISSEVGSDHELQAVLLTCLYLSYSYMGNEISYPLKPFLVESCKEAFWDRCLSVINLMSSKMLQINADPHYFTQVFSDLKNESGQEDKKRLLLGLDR

As usually defined, the IC50 is the point on the concentration scale where inhibition reaches its midpoint. Consider `CC(C)c1cnn2c(NCc3ccccc3-c3nccc4cc(NCC5CCN(C6CCN(c7ccc8c(c7)C(=O)N(C7CCC(=O)NC7=O)C8=O)CC6)CC5)ccc34)nc(O[C@@H]3CCCNC3)nc12` (some centres unmarked) [Compound 31], for which the “CDK1/CDK7: Selectivity of CDK7 inhibition over CDK1 inhibition” value in experiment [1] was “A (A indicates [fold] > 500)”. For the same compound, the IC50 in experiment [1] is over 1 µM; in experiment [2] it was over 1 µM; in experiment [3], over 1 µM; in experiment [4], at most 0.1 µM. For the same compound, the “CDK2/CDK7: Selectivity of CDK7 inhibition over CDK2 inhibition” value in experiment [2] was “A (A indicates [fold] > 500)”. For the same compound, the “CDK5/CDK7: Selectivity of CDK7 inhibition over CDK5 inhibition” value in experiment [3] is “B (B indicates 50 < [fold] ≤ 500)”. Moreover, in experiment [5], the DC50 was at most 0.1 µM.
Consider `CC(C)c1cnn2c(NCc3ccccc3-c3nccc4cc(NCC5CCN(CC6CCN(c7ccc8c(c7)C(=O)N(C7CCC(=O)NC7=O)C8=O)CC6)CC5)ccc34)nc(N[C@@H]3CCCNC3)nc12` (some centres unmarked) [Compound 32], for which, in experiment [1], the “CDK1/CDK7: Selectivity of CDK7 inhibition over CDK1 inhibition” value was “A (A indicates [fold] > 500)” and the concentration for half-maximal inhibition (IC50) is over 1 µM. Also, in experiment [2], the “CDK2/CDK7: Selectivity of CDK7 inhibition over CDK2 inhibition” value is “A (A indicates [fold] > 500)” and the IC50 is over 1 µM. Also, in experiment [3], the “CDK5/CDK7: Selectivity of CDK7 inhibition over CDK5 inhibition” value was “B (B indicates 50 < [fold] ≤ 500)” and the IC50 was over 1 µM. The half-inhibitory concentration (IC50) in experiment [4] was at most 0.1 µM. Further, the DC50 in experiment [5] was at most 0.1 µM.
Consider `CC(C)c1cnn2c(NCc3ccccc3-c3nccc4cc(N5CCN(CC6CCN(c7ccc8c(c7)C(=O)N(C7CCC(=O)NC7=O)C8=O)CC6)CC5)ccc34)nc(O[C@@H]3CCCNC3)nc12` (some centres unmarked) [Compound 33], for which, in experiment [1], the “CDK1/CDK7: Selectivity of CDK7 inhibition over CDK1 inhibition” value is “A (A indicates [fold] > 500)”. The IC50 is over 1 µM in experiment [1], over 1 µM in experiment [2], over 1 µM in experiment [3] and at most 0.1 µM in experiment [4]. For the same compound, the “CDK2/CDK7: Selectivity of CDK7 inhibition over CDK2 inhibition” value in experiment [2] was “A (A indicates [fold] > 500)”. The “CDK5/CDK7: Selectivity of CDK7 inhibition over CDK5 inhibition” value in experiment [3] is “B (B indicates 50 < [fold] ≤ 500)”. Further, in experiment [5], the DC50 is at most 0.1 µM.
Regarding `CC(C)c1cnn2c(NCc3ccccc3-c3nccc4cc(N5CCC(CN6CCN(c7ccc8c(c7)C(=O)N(C7CCC(=O)NC7=O)C8=O)CC6)CC5)ccc34)nc(O[C@@H]3CCCNC3)nc12` (some centres unmarked) [Compound 34], in experiment [1], the “CDK1/CDK7: Selectivity of CDK7 inhibition over CDK1 inhibition” value is “A (A indicates [fold] > 500)” and the IC50 was over 1 µM. In experiment [2], the “CDK2/CDK7: Selectivity of CDK7 inhibition over CDK2 inhibition” value was “A (A indicates [fold] > 500)” and the half-inhibitory concentration (IC50) is over 1 µM. Moreover, in experiment [3], the “CDK5/CDK7: Selectivity of CDK7 inhibition over CDK5 inhibition” value was “A (A indicates [fold] > 500)” and the IC50 is over 1 µM. The IC50 in experiment [4] was at most 0.1 µM. In addition, the DC50 in experiment [5] is at most 0.1 µM.
